Data reported in patent US20260317314A1, “NITROGEN-CONTAINING HETEROCYCLIC COMPOUND AND USE THEREOF” (JIANGSU DEYUAN PHARMACEUTICAL CO.,LTD., priority 2023, published 2026).

Key:
plasma protein [1] = assay: Plasma protein binding rate test, cynomolgus monkey (equilibrium dialysis); format: in vitro ADME; settings: 37° C., 4 hours
Description: (§1) The sample was thoroughly mixed.

plasma protein [2] = assay: Plasma protein binding rate test, human (equilibrium dialysis); format: in vitro ADME; settings: 37° C., 4 hours
Description: as §1

MDR1-MDCKII cells = assay: Permeability test in MDR1-MDCKII monolayer cell model; format: in vitro ADME; settings: 2 μM, pH 7.40, 2.5 hours, 37±1° C.
Experimental: (§2) Experimental objective: The permeability and efflux ratio of the compound of the present disclosure were determined using the MDR1-MDCKII monolayer cell model to assess its membrane permeability and potential for P-gp-mediated efflux transport.
(§3) Experimental protocol: MDR1-MDCKII cells (obtained from the Netherlands Cancer Institute) were seeded in 96-well plates (obtained from Corning) at a cell density of 3.33×10^5 cells/mL and cultured for 4 to 7 days to form confluent cell monolayers. Hank's balanced salt solution containing 10 mM HEPES (pH 7.40) was used as the transport buffer. The test compound was evaluated for bidirectional transport at a concentration of 2 μM, with the DMSO concentration in the incubation system maintained below 1%. After adding the samples, the cell plate was incubated at 37±1° C., 5% CO2, and saturated humidity for 2.5 hours. All samples were quantitatively analyzed using the LC-MS/MS method. The apparent permeability coefficient (Papp, cm/s) and efflux ratio (ER) were calculated using the following formula. Apparent permeability coefficient (Papp, cm/s) was calculated using the following formula: Papp=(dCr/dt)×Vr/(A×C0). Herein, dCr/dt represents the cumulative concentration of the compound at the receiving end per unit time (μM/s); Vr is the volume of the solution at the receiving end (with solution volumes at the apical and basolateral ends being 0.075 mL and 0.250 mL, respectively); A is the relative surface area of the cell monolayer (0.143 cm^2); C0 is the initial concentration of the test substance at the dosing end (μM) or the peak area ratio of the reference substance. The efflux ratio was calculated using the following formula: ER=Papp(BA)/Papp(AB).

CYP2D6 = target: T1, CYP2D6 (Homo sapiens, UniProt P10635); assay: Human liver microsome CYP inhibition assay, CYP2D6; format: in vitro ADME; settings: role: inhibitor; human liver microsomes, probe substrate; read-out: CYP2D6 half maximal inhibitory concentration IC50
T1 construct: Mixed human liver microsomes (HLM) were purchased from Corning Inc; tissue Corning Inc; host or cells: mixed human liver microsomes (HLM)
T1 sequence (P10635 whole entry): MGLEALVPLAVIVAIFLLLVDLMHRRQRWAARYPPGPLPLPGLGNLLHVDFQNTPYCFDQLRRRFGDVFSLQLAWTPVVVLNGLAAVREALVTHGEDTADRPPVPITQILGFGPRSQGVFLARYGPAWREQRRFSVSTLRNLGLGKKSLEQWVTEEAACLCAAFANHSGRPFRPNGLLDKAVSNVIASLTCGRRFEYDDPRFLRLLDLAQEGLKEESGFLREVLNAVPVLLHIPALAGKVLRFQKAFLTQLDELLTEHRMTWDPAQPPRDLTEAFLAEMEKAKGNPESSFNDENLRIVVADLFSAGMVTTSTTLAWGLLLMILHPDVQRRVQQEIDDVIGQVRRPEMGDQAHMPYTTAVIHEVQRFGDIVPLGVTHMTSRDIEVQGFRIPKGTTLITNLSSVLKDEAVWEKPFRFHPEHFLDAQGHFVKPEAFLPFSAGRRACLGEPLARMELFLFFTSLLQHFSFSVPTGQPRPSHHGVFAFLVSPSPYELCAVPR
Experimental: (§4) Experimental objective: To evaluate the inhibitory activity of the test substance on human liver microsomal cytochrome P450 isoenzymes (CYP1A2, CYP2C9, CYP2C19, CYP2D6, CYP3A4) using a 5-in-1 probe substrate for CYP isoenzymes.
(§5) Mixed human liver microsomes (HLM) were purchased from Corning Inc. (Steuben, New York, USA) and stored at temperatures below −70° C. prior to use.
(§6) The working solution of the test substance, which had been diluted to a series of concentrations, was added to an incubation system containing human liver microsomes, probe substrates, and auxiliary factors of the circulatory system. A control containing solvent but no test substance served as an enzyme activity control (100%). The concentration of metabolites produced from probe substrates in the samples was determined using Liquid Chromatography-Tandem Mass Spectrometry (LC-MS/MS) method. Non-linear regression analysis of the average percentage activity of the test substance against its concentration was conducted using SigmaPlot (V.11). The IC50 values were calculated using a three-parameter or four-parameter inverse log equation.

[3] = In vivo pharmacokinetics study in rats; parameters: species or system SD rat; settings: rat, plasma, male SD rats, oral 2 mg/kg
[4] = In vitro liver microsome metabolic stability study; format: in vitro ADME; settings: human liver microsomes 0.5 mg/mL, compound 1 μM, 37° C., up to 60 minutes; read-out: Intrinsic hepatic clearance CLint(liver)
Experimental: Stock solution: 10 mM in DMSO.
Only 54 μL of microsomal working solution, 6 μL of NADPH regeneration system working solution, and 180 μL of stop solution were added to the blank plate.
LC-MS/MS analysis was performed.

CYP3A4 = target: T2, CYP3A4 (Homo sapiens, UniProt P08684); assay: Human liver microsome CYP inhibition assay, CYP3A4; format: in vitro ADME; settings: role: inhibitor; human liver microsomes, probe substrate; read-out: CYP3A4 half maximal inhibitory concentration IC50
T2 construct: Mixed human liver microsomes (HLM) were purchased from Corning Inc; tissue Corning Inc; host or cells: mixed human liver microsomes (HLM)
T2 sequence (P08684 whole entry): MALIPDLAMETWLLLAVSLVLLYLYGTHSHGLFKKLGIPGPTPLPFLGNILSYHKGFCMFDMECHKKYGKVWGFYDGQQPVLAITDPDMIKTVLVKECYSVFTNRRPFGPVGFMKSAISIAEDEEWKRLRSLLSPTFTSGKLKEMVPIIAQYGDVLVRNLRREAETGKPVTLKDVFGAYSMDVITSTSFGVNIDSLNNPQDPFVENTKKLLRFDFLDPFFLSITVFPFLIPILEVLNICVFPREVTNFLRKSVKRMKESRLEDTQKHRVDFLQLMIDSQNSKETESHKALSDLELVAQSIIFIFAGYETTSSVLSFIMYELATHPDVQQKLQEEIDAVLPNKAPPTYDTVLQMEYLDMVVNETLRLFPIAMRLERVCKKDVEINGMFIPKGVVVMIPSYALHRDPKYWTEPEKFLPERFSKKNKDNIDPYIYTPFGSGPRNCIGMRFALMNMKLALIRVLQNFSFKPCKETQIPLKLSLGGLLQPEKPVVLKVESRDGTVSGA
Experimental: as §4, §5, §6

CYP1A2 = target: T3, CYP1A2 (Homo sapiens, UniProt P05177); assay: Human liver microsome CYP inhibition assay, CYP1A2; format: in vitro ADME; settings: role: inhibitor; human liver microsomes, probe substrate; read-out: CYP1A2 half maximal inhibitory concentration IC50
T3 construct: Mixed human liver microsomes (HLM) were purchased from Corning Inc; tissue Corning Inc; host or cells: mixed human liver microsomes (HLM)
T3 sequence (P05177 1-516): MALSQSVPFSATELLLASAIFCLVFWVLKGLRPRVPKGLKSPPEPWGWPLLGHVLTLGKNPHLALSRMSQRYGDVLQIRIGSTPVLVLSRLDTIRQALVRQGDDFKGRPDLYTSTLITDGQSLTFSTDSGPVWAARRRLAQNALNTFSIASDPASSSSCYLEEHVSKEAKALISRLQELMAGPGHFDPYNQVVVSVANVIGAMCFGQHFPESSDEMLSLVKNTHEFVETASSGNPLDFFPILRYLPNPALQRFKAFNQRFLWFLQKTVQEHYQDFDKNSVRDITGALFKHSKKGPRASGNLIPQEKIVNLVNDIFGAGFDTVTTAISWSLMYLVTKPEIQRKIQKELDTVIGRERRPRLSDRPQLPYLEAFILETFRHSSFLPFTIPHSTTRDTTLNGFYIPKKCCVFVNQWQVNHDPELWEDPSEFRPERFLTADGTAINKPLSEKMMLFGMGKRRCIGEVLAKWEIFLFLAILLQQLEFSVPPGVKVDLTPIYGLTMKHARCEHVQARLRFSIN
Experimental: as §4, §5, §6

[5] = Plasma protein binding rate test, cynomolgus monkey (equilibrium dialysis); format: in vitro ADME; settings: 37° C., read-out: Plasma protein binding rate (%) in cynomolgus monkeys (converted)
Description: as §1

[6] = Plasma protein binding rate test, human (equilibrium dialysis); format: in vitro ADME; settings: 37° C.
Description: as §1

[7] = Permeability test in MDR1-MDCKII monolayer cell model; format: in vitro ADME; settings: dog
Experimental: as §2, §3

CYP2C19 = target: T4, CYP2C19 (Homo sapiens, UniProt P33261); assay: Human liver microsome CYP inhibition assay, CYP2C19; format: in vitro ADME; settings: role: inhibitor; human liver microsomes, probe substrate; read-out: CYP2C19 half maximal inhibitory concentration IC50
T4 construct: Mixed human liver microsomes (HLM) were purchased from Corning Inc; tissue Corning Inc; host or cells: mixed human liver microsomes (HLM)
T4 sequence (P33261 whole entry): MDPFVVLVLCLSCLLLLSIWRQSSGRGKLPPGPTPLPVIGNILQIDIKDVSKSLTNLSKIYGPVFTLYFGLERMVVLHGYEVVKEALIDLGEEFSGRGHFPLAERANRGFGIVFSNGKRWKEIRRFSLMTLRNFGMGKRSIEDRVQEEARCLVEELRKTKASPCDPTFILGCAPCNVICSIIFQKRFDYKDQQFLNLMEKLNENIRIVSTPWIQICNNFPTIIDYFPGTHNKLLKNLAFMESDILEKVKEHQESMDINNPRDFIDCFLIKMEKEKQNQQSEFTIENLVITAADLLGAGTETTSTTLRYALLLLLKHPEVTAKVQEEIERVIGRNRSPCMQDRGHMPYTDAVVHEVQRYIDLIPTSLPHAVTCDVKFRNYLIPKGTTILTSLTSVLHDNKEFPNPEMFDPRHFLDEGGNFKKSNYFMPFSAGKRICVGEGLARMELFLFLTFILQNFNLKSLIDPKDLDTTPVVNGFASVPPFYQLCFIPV
Experimental: as §4, §5, §6

CYP2C9 = target: T5, CYP2C9 (Homo sapiens, UniProt P11712); assay: Human liver microsome CYP inhibition assay, CYP2C9; format: in vitro ADME; settings: role: inhibitor; human liver microsomes, probe substrate; read-out: CYP2C9 half maximal inhibitory concentration IC50
T5 construct: Mixed human liver microsomes (HLM) were purchased from Corning Inc; tissue Corning Inc; host or cells: mixed human liver microsomes (HLM)
T5 sequence (P11712 whole entry): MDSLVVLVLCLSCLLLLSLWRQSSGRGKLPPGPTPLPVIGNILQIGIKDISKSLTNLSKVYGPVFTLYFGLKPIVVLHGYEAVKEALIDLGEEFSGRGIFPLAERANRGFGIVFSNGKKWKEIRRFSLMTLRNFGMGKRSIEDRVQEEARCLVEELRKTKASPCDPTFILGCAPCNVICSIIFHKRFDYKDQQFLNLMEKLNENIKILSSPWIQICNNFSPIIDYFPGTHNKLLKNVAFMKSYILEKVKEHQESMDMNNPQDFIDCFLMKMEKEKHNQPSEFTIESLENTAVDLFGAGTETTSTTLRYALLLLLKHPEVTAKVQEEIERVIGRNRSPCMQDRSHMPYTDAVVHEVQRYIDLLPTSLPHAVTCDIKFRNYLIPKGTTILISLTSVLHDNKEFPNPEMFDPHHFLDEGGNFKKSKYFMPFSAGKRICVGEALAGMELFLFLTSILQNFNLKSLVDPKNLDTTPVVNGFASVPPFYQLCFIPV
Experimental: as §4, §5, §6

Compound	Plasma protein binding rate (%) in cynomolgus monkeys (plasma protein [1])	Human plasma protein binding rate (%) (plasma protein [2])	Apparent permeability coefficient (Papp (AB)) (MDR1-MDCKII cells)	IC50 (CYP2D6)	bioavailability [3]	half-life [3]	Cmax [3]	AUC(0-t) at 24 h ([3]; read-out: AUC0-24 h)	CLint scaled at 1 µM [4]	IC50 (CYP3A4)	IC50 (CYP1A2)	fraction unbound at 4 h [5]	fraction unbound at 4 h [6]	efflux ratio at 2.5 h, 2 µM ([7]; MDCK-MDR1, pH 7.4, ER=Papp(BA)/Papp(AB))	Papp A→B at 2.5 h, 2 µM ([7]; MDCK-MDR1, pH 7.4, pH 7.40, 2.5 hours, 37±1° C., read-out: Apparent permeability coefficient (Papp (AB)))	IC50 (CYP2C19)	IC50 (CYP2C9)
CCC(=O)N[C@H]1CCOc2c(-c3ccc4c(ccc(=O)n4C)c3)cncc21 (single isomer, unassigned) [Compound 044]	66.4%	70.5%	11.0 10^-6 cm/s	–	–	–	–	–	–	–	–	–	–	–	–	–	–
CCC(=O)NC1CCOc2c(-c3cc4c(s3)N(C)C(=O)CC4)cncc21 (single isomer, unassigned) [Compound 046]	–	–	–	> 50 µM	71%	3.23 h	7.86 µM	36.6 µM·h	< 8.6 mL/min/kg	> 50 µM	> 50 µM	0.304	0.166	1.17	18 ×10⁻⁶ cm/s	> 50 µM	> 50 µM
